Measured values published in patent US5607926A, “Cephalosporin antibiotics” (Microcide Pharmaceuticals, Inc., priority 1995, dated 1997).
Converted amounts (≈) assume the structure as drawn. Where a name gives a salt, the structure may show the parent alone. Read-outs that look alike come from different tables or passages of the source.

How the values were obtained:
Type in all cases: cell-based
S. aureus ATCC 25923 = experiment: In vitro antibacterial evaluation, MIC by agar dilution, S. aureus ATCC 25923; conditions: Staphylococcus aureus, ATCC25923
Experimental: (§1) The compounds of the invention were evaluated against several β-lactamresistant bacteria strains by determining the minimum inhibitory concentration (MIC, μg/ml) of each compound with respect to each strain. The MIC, the lowest concentration of antibiotic which inhibits growth of the test organism, was determined by the agar dilution method.
(§2) To determine the MIC for bacterial isolates, the test compound was incorporated in a series of two-fold dilutions into liquified Mueller-Hinton agar. Upon solidification, a number of different bacterial strains were spot inoculated with a replicating device onto the agar surface. […] The procedures used in these studies have been standardized by the National Committee for Clinical Laboratory Standards (NCCLS), as per the NCCLS publication entitled METHODS FOR DILUTION ANTIMICROBIAL SUSCEPTIBILITY TESTS (1991), which is incorporated herein by reference.
(§3) Aliquots of antimicrobial agents were prepared in phosphate buffered saline (PBS) at pH 7.2. Tween 20 or DMSO was used as a solubilizing vehicle as needed. Standard methods of vortexing, sonicating and gentle heat were used to facilitate solubilizing the test agent. Typically, the concentration of the stock solution was 10× that of the highest drug concentration tested. A 1.28 mg/mL stock solution was used with a subsequent highest working concentration of 128 μg/mL. Serial two-fold dilutions were done through ≤0.25 μg/mL. Each drug level was tested in duplicate. Two-fold drug dilutions were done in sterile 50 mL tubes with a final drug volume of 5 mL. Upon the addition of 45 mL of molten agar, a 10-fold dilution resulted. Two, 25 mL. plates were then poured into 15×150 mm square Petri plates with grids and allowed to harden.
(§4) A control plate with a reference drug, either cefotaxime, vancomycin or imipenem, was used as the positive growth control. Stock concentrations of reference antibiotics were prepared and frozen at -80° C. Upon preparation, the control plates were sealed and stored in the refrigerator for up to 1 week prior to use; however, imipenem control plates had to be prepared just prior to use. All test plates were used within 24 hours of preparation.
(§5) Satisfactory results were obtained where the inoculum contained about 10^4 colony forming units (cfu) ±0.5 logs. Starting with pure cultures of the test isolates on agar plates, a few isolated colonies were transferred to a tube of nutrient broth and allowed to grow 4-6 hours at 35°-36° C. to reach log-phase growth. Dropwise addition of the broth culture to PBS was done to match a 0.5 McFarland turbidity standard equal to 10^8 cfu/mL. This was further diluted ten-fold in PBS to reach a working inoculum concentration of 10^7 cfu/mL. When 1 μL of the working inoculum was applied to the agar surface a concentration of about 10^4 cfu per spot was obtained.
(§6) Disposable sterile 1 μL loops were used to inoculate test plates, with each isolate in a designated grid on the agar plate. An alternate method of inoculation involved the use of a replica plater, a device with 48 steel pins allowing the simultaneous inoculation of multiple isolates. After the spots had dried, the plates were incubated at 35°-36° C. for 16-20 hours. Endpoints were assessed as the minimum inhibitory concentration (MIC) of antimicrobial agent.

[1] = system: S. epidermidis ATCC 31432; experiment: In vitro antibacterial evaluation, MIC by agar dilution, S. epidermidis ATCC 31432; conditions: Staphylococcus epidermidis, ATCC31432
Experimental: as §1, §2, §3, §4, §5, §6

[2] = system: S. aureus 76 (Meth^R)(lac^+); experiment: In vitro antibacterial evaluation, MIC by agar dilution, S. aureus 76; conditions: Staphylococcus aureus, read-out: MIC
How it was run: (§7)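 Minimum inhibitory concentrations came from the NCCLS agar dilution method in Mueller-Hinton agar. Each isolate received about 10^4 cfu per spot, and plates were read after 16-20 hours at 35°-36° C.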

[3] = system: S. aureus Col8A (Meth^S)(lac^-); experiment: In vitro antibacterial evaluation, MIC by agar dilution, S. aureus Col8A; conditions: Staphylococcus aureus
How it was run: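 Agar dilution per NCCLS (1991): two-fold dilutions from 128 μg/mL down to ≤0.25 μg/mL in Mueller-Hinton agar, each level in duplicate. Spots of about 10^4 cfu of log-phase culture; 16-20 h at 35°-36° C. MIC in μg/ml is the lowest concentration inhibiting growth.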

S. haemolyticus (Meth^R) = experiment: In vitro antibacterial evaluation, MIC by agar dilution, S. haemolyticus; conditions: Staphylococcus haemolyticus, read-out: MIC
How it was run: as §7

E. faecium ATCC 35667 = experiment: In vitro antibacterial evaluation, MIC by agar dilution, E. faecium ATCC 35667; conditions: Enterococcus faecium, ATCC35667, read-out: MIC
How it was run: as §7

E. faecalis ATCC 29212 = experiment: In vitro antibacterial evaluation, MIC by agar dilution, E. faecalis ATCC 29212; conditions: Enterococcus faecalis, ATCC29212; E. faecalis ATCC 29212; read-out: MIC
Experimental: as §1, §2, §3, §4, §5, §6

E. coli ATCC 25922 = experiment: In vitro antibacterial evaluation, MIC by agar dilution, E. coli ATCC 25922; conditions: Escherichia coli, ATCC25922, read-out: MIC
How it was run: as §7

P. aeruginosa ATCC 27853 = experiment: In vitro antibacterial evaluation, MIC by agar dilution, P. aeruginosa ATCC 27853; conditions: Pseudomonas aeruginosa, ATCC27853, read-out: MIC
How it was run: as §7

[4] = S. aureus ATCC 25923, read-out: MIC
[5] = S. epidermidis ATCC 31432, read-out: MIC

Structure (SMILES)	MIC (S. aureus ATCC 25923) [µg/mL]	MIC [1] [µg/mL]	MIC [2] [µg/mL]	MIC [3] [µg/mL]	MIC (S. haemolyticus (Meth^R)) [µg/mL]	MIC (E. faecium ATCC 35667) [µg/mL]	MIC (E. faecalis ATCC 29212) [µg/mL]	MIC (E. coli ATCC 25922) [µg/mL]	MIC (P. aeruginosa ATCC 27853) [µg/mL]	MIC (S. aureus ATCC 25923; [4]) [µg/mL]	MIC [1, 5] [µg/mL]
COc1ccc(Cc2ccc(-c3ccccc3SC3=C(C(=O)O)N4C(=O)[C@@H](NC(=O)Cc5ccccc5)[C@H]4SC3)s2)cc1 [Cmpd 43, (7R)-7-[(Phenylacetyl)amino]-3-(2-(2-(4-methoxy-phenylmethyl)thien-5-yl)phenylthio)-3-cephem-4-carboxylic acid]	< 0.25	< 0.25	8 (≈ 12.7 µM)	< 0.25	16 (≈ 25.4 µM)	4 (≈ 6.36 µM)	4 (≈ 6.36 µM)	> 32	> 32		
Cn1cc[n+](Cc2ccc(-c3ccccc3SC3=C(C(=O)[O-])N4C(=O)[C@@H](NC(=O)Cc5ccccc5)[C@H]4SC3)s2)c1 [Cmpd 45, (7R)-7-[(Phenylacetyl)amino]-3-(2-(2-(N-methylimidazoliummethyl)thien-5-yl)phenylthio)-3-cephem-4-carboxylic acid]			16 (≈ 26.5 µM)	0.5 (≈ 0.83 µM)	32 (≈ 53.1 µM)	4 (≈ 6.64 µM)	4 (≈ 6.64 µM)	> 32	> 32	< 0.25	< 0.25
O=C(Cc1ccccc1)N[C@@H]1C(=O)N2C(C(=O)O)=C(Sc3ccc(C(F)(F)F)cc3)CS[C@H]12 [Cmpd 40, (7R)-7-[(Phenylacetyl)amino]-3-(4-trifluoromethylphenylthio)-3-cephem-4-carboxylic acid]	< 0.25	< 0.25	16 (≈ 32.4 µM)	< 0.25	32 (≈ 64.7 µM)	4 (≈ 8.09 µM)	4 (≈ 8.09 µM)	> 32	> 32		
O=C(Cc1ccccc1)N[C@@H]1C(=O)N2C(C(=O)O)=C(Sc3ccccc3CO)CS[C@H]12 [Cmpd 38, (7R)-7-[(Phenylacetyl)amino]-3-(2-hydroxymethylphenylthio)-3-cephem-4-carboxylic acid]	< 0.25	< 0.25	16 (≈ 35 µM)	< 0.25	32 (≈ 70.1 µM)	4 (≈ 8.76 µM)	4 (≈ 8.76 µM)	> 32	> 32		
CC(C)(C)c1ccccc1SC1=C(C(=O)O)N2C(=O)[C@@H](NC(=O)Cc3ccccc3)[C@H]2SC1 [Cmpd 46, (7R)-7-[(Phenylacetyl)amino]-3-(2-tert-butylphenylthio)-3-cephem-4-carboxylic acid]	< 0.25	< 0.25	8 (≈ 16.6 µM)	< 0.25	16 (≈ 33.2 µM)	2 (≈ 4.14 µM)	2 (≈ 4.14 µM)	> 32	> 32		
CSc1ccccc1SC1=C(C(=O)O)N2C(=O)[C@@H](NC(=O)Cc3ccccc3)[C@H]2SC1 [Cmpd 44, (7R)-7-[(Phenylacetyl)amino]-3-(2-methylthiophenylthio)-3-cephem-4-carboxylic acid]	< 0.25	< 0.25	4 to 8 (≈ 8.46 to 16.9 µM)	< 0.25	8 (≈ 16.9 µM)	4 (≈ 8.46 µM)	4 (≈ 8.46 µM)	> 32	> 32		
O=C(Cc1ccccc1)N[C@@H]1C(=O)N2C(C(=O)O)=C(Sc3ccc(CSC4=NCCN4)cc3I)CS[C@H]12 [Cmpd 59, (7R)-7-[(Phenylacetyl)amino]-3-(4-(2-imidazolin-2-ylthiomethyl)-2-iodophenylthio)-3-cephem-4-carboxylic acid]	< 0.25	< 0.25	8 (≈ 12 µM)	< 0.25	16 (≈ 24 µM)	4 (≈ 6 µM)	4 (≈ 6 µM)	> 32	> 32		
C=Cc1ccccc1SC1=C(C(=O)O)N2C(=O)[C@@H](NC(=O)Cc3ccccc3)[C@H]2SC1 [Cmpd 36, (7R)-7-[(Phenylacetyl)amino]-3-(2-vinylphenylthio)-3-cephem-4-carboxylic acid]	< 0.25	< 0.25	8 (≈ 17.7 µM)	< 0.25	16 (≈ 35.4 µM)	4 (≈ 8.84 µM)	2 (≈ 4.42 µM)	> 32	> 32		
N=C(N)NC(=N)SCc1ccc(SC2=C(C(=O)O)N3C(=O)[C@@H](NC(=O)Cc4ccccc4)[C@H]3SC2)c(I)c1 [Cmpd 60, (7R)-7-[(Phenylacetyl)amino]-3-(4-(N-amidino)isothiouroniummethyl-2-iodophenylthio)-3-cephem-4-carboxylate, inner salt]	< 0.25	< 0.25	4	< 0.25	4 to 8	1	1	> 32	> 32		
CC(C)Oc1ccccc1SC1=C(C(=O)O)N2C(=O)[C@@H](NC(=O)Cc3ccccc3)[C@H]2SC1 [Cmpd 47, (7R)-7-[(Phenylacetyl)amino]-3-(2-iso-propyloxyphenylthio)-3-cephem-4-carboxylic acid]	< 0.25	< 0.25	8 (≈ 16.5 µM)	< 0.25	16 (≈ 33 µM)	2 (≈ 4.13 µM)	4 (≈ 8.25 µM)	> 32	> 32		
O=C(Cc1ccccc1)N[C@@H]1C(=O)N2C(C(=O)[O-])=C(Sc3ccc[n+](Cc4ccccc4)c3-c3ccccc3)CS[C@H]12 [Cmpd 83, (7R)-7-[(Phenylacetyl)amino]-3-(2-phenyl-N-benzylpyridin-3-iumthio)-3-cephem-4-carboxylate]	< 0.25	< 0.25	16 (≈ 26.9 µM)	< 0.25	32 (≈ 53.9 µM)	2 (≈ 3.37 µM)	1 (≈ 1.68 µM)	> 32	> 32		
O=C(Cc1ccccc1)N[C@@H]1C(=O)N2C(C(=O)O)=C(Sc3nnnn3-c3ccccc3)CS[C@H]12 [Cmpd 94, (7R)-7-[(Phenylacetyl)amino]-3-(1-N-phenyltetrazol-5-ylthio)-3-cephem-4-carboxylic acid]	< 0.25	< 0.25	16 (≈ 32.4 µM)	< 0.25	> 32	2 (≈ 4.04 µM)	1 (≈ 2.02 µM)	> 32	> 32		
N#Cc1ccc(SC2=C(C(=O)O)N3C(=O)[C@@H](NC(=O)Cc4ccccc4)[C@H]3SC2)c([N+](=O)[O-])c1 [Cmpd 49, (7R)-7-[(Phenylacetyl)amino]-3-(4-cyano-2-nitrophenylthio)-3-cephem-4-carboxylic acid]			16 (≈ 32.2 µM)	0.5 (≈ 1.01 µM)	32 (≈ 64.4 µM)	4 (≈ 8.06 µM)	4 (≈ 8.06 µM)	> 32	> 32	< 0.25	< 0.25
N#CCC(=O)N[C@@H]1C(=O)N2C(C(=O)O)=C(Sc3ccccc3-c3ccccc3)CS[C@H]12 [Cmpd 34, (7R)-7-[(Cyanoacetyl)amino]-3-(2-biphenylthio)-3-cephem-4-carboxylic acid]	< 0.25	< 0.25	8 (≈ 17.7 µM)	< 0.25	8 (≈ 17.7 µM)	2 (≈ 4.43 µM)	2 (≈ 4.43 µM)	> 32	> 32		
